Consider one compound from publication PMC5818190, “An allosteric binding site of the α7 nicotinic acetylcholine receptor revealed in a humanized acetylcholine-binding protein” (The Journal of Biological Chemistry, 2017).

By IC50 is commonly meant the concentration that gives 50% inhibition.

The target of this test is T1, human α7 nAChR (Homo sapiens, UniProt P36544).
T1 construct: gene CHRNA7; full-length receptor, cRNA from pMXT vector, Xenopus laevis oocytes; homomeric pentamer
The test is described as follows: two-electrode voltage clamp, Xenopus oocytes. The class given is cell-based. For orientation: Two-electrode voltage clamp holds a large cell at a set potential and records current.

T1 sequence (P36544 23-502): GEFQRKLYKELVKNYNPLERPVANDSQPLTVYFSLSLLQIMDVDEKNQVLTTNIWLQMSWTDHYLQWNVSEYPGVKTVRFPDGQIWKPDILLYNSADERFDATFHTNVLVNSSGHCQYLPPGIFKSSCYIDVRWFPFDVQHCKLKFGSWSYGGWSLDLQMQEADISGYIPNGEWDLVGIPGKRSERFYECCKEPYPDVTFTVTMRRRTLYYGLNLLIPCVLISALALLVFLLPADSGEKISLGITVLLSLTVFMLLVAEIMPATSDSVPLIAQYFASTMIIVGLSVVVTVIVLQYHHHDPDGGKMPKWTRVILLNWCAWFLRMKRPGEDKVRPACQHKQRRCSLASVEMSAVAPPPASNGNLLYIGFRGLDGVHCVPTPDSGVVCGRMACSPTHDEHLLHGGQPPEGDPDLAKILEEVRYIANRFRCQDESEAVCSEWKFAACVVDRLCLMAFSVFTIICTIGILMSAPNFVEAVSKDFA

In the case of `O=C(Nc1ccc(Br)cn1)[C@@H]1CCCNC1` [CU2017, N-(5-bromopyridin-2-yl)piperidine-3-carboxamide], the IC50 came to 26.7 ± 1.6 µM.
